Experimental data published in PubChem BioAssay AID2060487 (Molecular Pharmacology Branch, DTP, NCI, 2025).
pIC50: −log10 of the molar value.

Test system: 997537-175-T-J1-PDC complex spheroid viability
Test: Anticancer human tumor 997537-175-T-J1-PDC patient-derived colon adenocarcinoma cell line growth inhibition [GQUAD]
Settings: for pIC50: curve of first compound; for viability, T/C: stronger effect = lower value
How it was run: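 Multi-cell-type spheroids of tumor cells with HUVEC and mesenchymal stem cells, treated with drug combinations. Concentrations descend in half-log steps from near clinical Cmax, or from 10 microM where Cmax is unknown; viability read-out.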

[1] = second compound 0.0316 µM, first compound 0.0316 µM
[2] = second compound 0.0316 µM, first compound 0.1 µM
[3] = second compound 0.0316 µM, first compound 0.316 µM
[4] = second compound 0.0316 µM, first compound 1 µM
[5] = second compound 0.0316 µM, first compound 3.16 µM
[6] = second compound 0.0316 µM, first compound 10 µM
[7] = second compound 0.1 µM, first compound 0.0316 µM
[8] = second compound 0.1 µM, first compound 0.1 µM
[9] = second compound 0.1 µM, first compound 0.316 µM
[10] = second compound 0.1 µM, first compound 1 µM
[11] = second compound 0.1 µM, first compound 3.16 µM
[12] = second compound 0.1 µM, first compound 10 µM
[13] = second compound 0.316 µM, first compound 0.0316 µM
[14] = second compound 0.316 µM, first compound 0.1 µM
[15] = second compound 0.316 µM, first compound 0.316 µM
[16] = second compound 0.316 µM, first compound 1 µM
[17] = second compound 0.316 µM, first compound 3.16 µM
[18] = second compound 0.316 µM, first compound 10 µM
[19] = second compound 1 µM, first compound 0.0316 µM
[20] = second compound 1 µM, first compound 0.1 µM
[21] = second compound 1 µM, first compound 0.316 µM
[22] = second compound 1 µM, first compound 1 µM
[23] = second compound 1 µM, first compound 3.16 µM
[24] = second compound 1 µM, first compound 10 µM
[25] = second compound 3.16 µM, first compound 0.0316 µM
[26] = second compound 3.16 µM, first compound 0.1 µM
[27] = second compound 3.16 µM, first compound 0.316 µM
[28] = second compound 3.16 µM, first compound 1 µM
[29] = second compound 3.16 µM, first compound 3.16 µM
[30] = second compound 3.16 µM, first compound 10 µM
[31] = second compound 10 µM, first compound 0.0316 µM
[32] = second compound 10 µM, first compound 0.1 µM
[33] = second compound 10 µM, first compound 0.316 µM
[34] = second compound 10 µM, first compound 1 µM
[35] = second compound 10 µM, first compound 3.16 µM
[36] = second compound 10 µM, first compound 10 µM
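Further: spheroids exposed to the agents for 7 days.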
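Wherever viability, T/C is given: 100% = DMSO vehicle control viability.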

Work on O=C(NO)c1cnc(N2CCN(S(=O)(=O)c3ccc4ccccc4c3)CC2)nc1 + Cc1[nH]c2ccc(F)cc2c1-c1nc2c3cccnc3c3ncccc3c2[nH]1 yielded a pIC50 (second compound 0.0316 µM) of 7.05, a pIC50 (second compound 0.1 µM) of 6.87 and a pIC50 (second compound 0.316 µM) of 7.04. The pIC50 (second compound 1 µM) was 7.06, the pIC50 (second compound 3.16 µM) was 7.37 and the pIC50 (second compound 10 µM) was greater than 7.50. The viability, T/C [1] was 93.7%, the viability, T/C [2] was 45.1% and the viability, T/C [3] was 19.4%. It also gave a viability, T/C [4] of 35.4%, a viability, T/C [5] of 39.2% and a viability, T/C [6] of 21.7%. The viability, T/C [7] was 73.6%, the viability, T/C [8] was 56.2% and the viability, T/C [9] was 31.2%. For the same compound, the viability, T/C [10] was 32.7%, the viability, T/C [11] was 20.9% and the viability, T/C [12] was 42.4%. For the same compound, the viability, T/C [13] was 78.8%, the viability, T/C [14] was 43.4% and the viability, T/C [15] was 52.3%. The viability, T/C [16] was 31.8%, the viability, T/C [17] was 42.2% and the viability, T/C [18] was 34.8%. For the same compound, the viability, T/C [19] was 74.4%, the viability, T/C [20] was 44.5% and the viability, T/C [21] was 37.6%. For the same compound, the viability, T/C [22] was 29.4%, the viability, T/C [23] was 23.6% and the viability, T/C [24] was 26.2%. It also gave a viability, T/C [25] of 55.9%, a viability, T/C [26] of 33.5% and a viability, T/C [27] of 30.5%. It also gave a viability, T/C [28] of 24.8%, a viability, T/C [29] of 25.6% and a viability, T/C [30] of 19.4%. It also gave a viability, T/C [31] of 45.1%, a viability, T/C [32] of 16.1% and a viability, T/C [33] of 10.4%. It also gave a viability, T/C [34] of 19.8%, a viability, T/C [35] of 16.6% and a viability, T/C [36] of 18%.

O=C(c1cc(Cc2n[nH]c(=O)c3ccccc23)ccc1F)N1CCN(C(=O)C2CC2)CC1 + CN(C)c1ccc(Nc2c3ccc(NC(=O)CCN4CCCC4)cc3nc3cc(NC(=O)CCN4CCCC4)ccc23)cc1 gave a pIC50 (second compound 0.0316 µM) of less than 5.00, a pIC50 (second compound 0.1 µM) of less than 5.00 and a pIC50 (second compound 0.316 µM) of less than 5.00. For the same compound, the pIC50 (second compound 1 µM) was less than 5.00, the pIC50 (second compound 3.16 µM) was less than 5.00 and the pIC50 (second compound 10 µM) was less than 5.00. It also gave a viability, T/C [1] of 106%, a viability, T/C [2] of 89.7% and a viability, T/C [3] of 91.4%. For the same compound, the viability, T/C [4] was 79.1%, the viability, T/C [5] was 98.9% and the viability, T/C [6] was 90.6%. For the same compound, the viability, T/C [7] was 92%, the viability, T/C [8] was 99.2% and the viability, T/C [9] was 97.2%. For the same compound, the viability, T/C [10] was 74.5%, the viability, T/C [11] was 91.4% and the viability, T/C [12] was 88.9%. The viability, T/C [13] was 88.3%, the viability, T/C [14] was 78.2% and the viability, T/C [15] was 90.4%. The viability, T/C [16] was 72%, the viability, T/C [17] was 97.3% and the viability, T/C [18] was 84.3%. It also gave a viability, T/C [19] of 85.7%, a viability, T/C [20] of 86% and a viability, T/C [21] of 77.6%. It also gave a viability, T/C [22] of 85.6%, a viability, T/C [23] of 92.4% and a viability, T/C [24] of 85.4%. The viability, T/C [25] was 82.8%, the viability, T/C [26] was 105% and the viability, T/C [27] was 88.7%. The viability, T/C [28] was 73.9%, the viability, T/C [29] was 85.8% and the viability, T/C [30] was 105%. For the same compound, the viability, T/C [31] was 74.9%, the viability, T/C [32] was 97.4% and the viability, T/C [33] was 95.2%. It also gave a viability, T/C [34] of 93.8%, a viability, T/C [35] of 102% and a viability, T/C [36] of 96%.

Compound C=CCn1c(=O)c2cnc(Nc3ccc(N4CCN(C)CC4)cc3)nc2n1-c1cccc(C(C)(C)O)n1 + Cc1cnc(CNC(=O)c2c(=O)c3ccc(N4CCCN(C)CC4)nc3n3c2sc2ccccc23)cn1 has a pIC50 (second compound 0.0316 µM) of 5.73, a pIC50 (second compound 0.1 µM) of 5.56 and a pIC50 (second compound 0.316 µM) of 5.59. For the same compound, the pIC50 (second compound 1 µM) was 5.12, the pIC50 (second compound 3.16 µM) was less than 5.00 and the pIC50 (second compound 10 µM) was 5.07. For the same compound, the viability, T/C [1] was 105%, the viability, T/C [2] was 76.5% and the viability, T/C [3] was 99%. The viability, T/C [4] was 70.5%, the viability, T/C [5] was 32.8% and the viability, T/C [6] was 20.4%. The viability, T/C [7] was 105%, the viability, T/C [8] was 104% and the viability, T/C [9] was 98.3%. The viability, T/C [10] was 71.2%, the viability, T/C [11] was 48.6% and the viability, T/C [12] was 30.4%. For the same compound, the viability, T/C [13] was 89%, the viability, T/C [14] was 94.2% and the viability, T/C [15] was 91.3%. For the same compound, the viability, T/C [16] was 74%, the viability, T/C [17] was 44.8% and the viability, T/C [18] was 38.1%. For the same compound, the viability, T/C [19] was 80.5%, the viability, T/C [20] was 99.8% and the viability, T/C [21] was 112%. The viability, T/C [22] was 61.1%, the viability, T/C [23] was 76% and the viability, T/C [24] was 43.2%. The viability, T/C [25] was 63.1%, the viability, T/C [26] was 98.4% and the viability, T/C [27] was 96%. For the same compound, the viability, T/C [28] was 107%, the viability, T/C [29] was 75.2% and the viability, T/C [30] was 50.6%. The viability, T/C [31] was 73.8%, the viability, T/C [32] was 99.3% and the viability, T/C [33] was 87.2%. For the same compound, the viability, T/C [34] was 87%, the viability, T/C [35] was 79.8% and the viability, T/C [36] was 44.8%.

C=CCn1c(=O)c2cnc(Nc3ccc(N4CCN(C)CC4)cc3)nc2n1-c1cccc(C(C)(C)O)n1 + Cc1[nH]c2ccc(F)cc2c1-c1nc2c3cccnc3c3ncccc3c2[nH]1 showed a pIC50 (second compound 0.0316 µM) of 5.18, a pIC50 (second compound 0.1 µM) of 5.20 and a pIC50 (second compound 0.316 µM) of 5.21. It also gave a pIC50 (second compound 1 µM) of 5.26, a pIC50 (second compound 3.16 µM) of 5.65 and a pIC50 (second compound 10 µM) of 5.68. For the same compound, the viability, T/C [1] was 102%, the viability, T/C [2] was 68.9% and the viability, T/C [3] was 82.3%. It also gave a viability, T/C [4] of 83.6%, a viability, T/C [5] of 90.9% and a viability, T/C [6] of 30%. It also gave a viability, T/C [7] of 105%, a viability, T/C [8] of 97.1% and a viability, T/C [9] of 89.8%. The viability, T/C [10] was 89.2%, the viability, T/C [11] was 93.6% and the viability, T/C [12] was 22.2%. The viability, T/C [13] was 86.8%, the viability, T/C [14] was 98.8% and the viability, T/C [15] was 79.3%. It also gave a viability, T/C [16] of 86.4%, a viability, T/C [17] of 84.4% and a viability, T/C [18] of 25%. For the same compound, the viability, T/C [19] was 86.6%, the viability, T/C [20] was 102% and the viability, T/C [21] was 86.4%. For the same compound, the viability, T/C [22] was 78.3%, the viability, T/C [23] was 71.2% and the viability, T/C [24] was 30.1%. It also gave a viability, T/C [25] of 92%, a viability, T/C [26] of 87.3% and a viability, T/C [27] of 72.4%. The viability, T/C [28] was 56.5%, the viability, T/C [29] was 55% and the viability, T/C [30] was 6.52%. For the same compound, the viability, T/C [31] was 91.9%, the viability, T/C [32] was 65.1% and the viability, T/C [33] was 74.9%. It also gave a viability, T/C [34] of 66.5%, a viability, T/C [35] of 42.1% and a viability, T/C [36] of 11.5%.
